Laboratory results reported in patent US10294202B2, “Pyrrolidinones as herbicides” (FMC Corporation, priority 2013, dated 2019).

Experiments:
barnyardgrass [1] = experiment: Test C pre-/postemergence herbicide test; format: in vivo, Echinochloa crus-galli
Procedure, shortened: (§1)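 Pre-emergence: seeds sown in loam/sand blend and treated with compound in surfactant-containing solvent. Post-emergence: plants at 2–18 cm (1- to 4-leaf stage) in peat-based medium sprayed with the same formulation. Visual rating versus controls after 13–15 days in greenhouse, scale 0 (no effect) to 100 (complete control).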

waterhemp = experiment: Test C pre-/postemergence herbicide test; format: in vivo, Amaranthus rudis
Procedure, shortened: as §1

wheat (winter wheat) = experiment: Test C pre-/postemergence herbicide test; format: in vivo, Triticum aestivum
Procedure, shortened: as §1

ryegrass, Italian = experiment: Test C pre-/postemergence herbicide test; format: in vivo, Lolium multiflorum
Procedure, shortened: as §1

ducksalad = experiment: Test B flooded paddy test; format: in vivo, Heteranthera limosa; conditions: 500 g ai/ha, Flood; scale of 0 to 100 where 0 is no effect and 100 is complete control
Procedure, shortened: (§2)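 In-water application to pots flooded 3 cm deep, plants at 2-leaf stage. Held in greenhouse 13–15 days at constant flood depth. Scored 0–100 by eye against controls.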

lambsquarters = experiment: Test C pre-/postemergence herbicide test; format: in vivo, Chenopodium album
Procedure, shortened: as §1

barnyardgrass [2] = experiment: Test B flooded paddy test; format: in vivo, Echinochloa crus-galli; conditions: 500 g ai/ha, Flood; scale of 0 to 100 where 0 is no effect and 100 is complete control
Procedure, shortened: as §2

soybean = experiment: Test C pre-/postemergence herbicide test; format: in vivo, Glycine max
Procedure, shortened: as §1

sedge, umbrella = experiment: Test B flooded paddy test; format: in vivo, Cyperus difformis; conditions: 500 g ai/ha, Flood; scale of 0 to 100 where 0 is no effect and 100 is complete control
Procedure, shortened: as §2

oat, wild = experiment: Test C pre-/postemergence herbicide test; format: in vivo, Avena fatua; conditions: Postemergence
Procedure, shortened: as §1

pigweed = experiment: Test C pre-/postemergence herbicide test; format: in vivo, Amaranthus retroflexus
Procedure, shortened: as §1

galium = experiment: Test C pre-/postemergence herbicide test; format: in vivo, Galium aparine; conditions: Preemergence
Procedure, shortened: as §1

corn = experiment: Test C pre-/postemergence herbicide test; format: in vivo, Zea mays
Procedure, shortened: as §1

ragweed = experiment: Test C pre-/postemergence herbicide test; format: in vivo, Ambrosia elatior
Procedure, shortened: as §1

morningglory = experiment: Test C pre-/postemergence herbicide test; format: in vivo, Ipomoea coccinea
Procedure, shortened: as §1

[3] = Postemergence, 31 g ai/ha, scale 0 to 100 (0 no effect, 100 complete control)
[4] = Postemergence, 62 g ai/ha, scale 0 (no effect) to 100 (complete control)
[5] = Postemergence, 125 g ai/ha, scale 0 to 100 (0 no effect, 100 complete control)
[6] = Postemergence, 250 g ai/ha, scale 0 to 100 (0 no effect, 100 complete control)
[7] = Preemergence, 31 g ai/ha, scale 0 to 100, 0 is no effect and 100 is complete control
[8] = Preemergence, 62 g ai/ha, scale 0 to 100
[9] = Preemergence, 125 g ai/ha, scale 0 to 100 (0 no effect, 100 complete control)
[10] = 125 g ai/ha, scale 0 to 100 (0 no effect, 100 complete control)

O=C1NCC(c2ccc(F)cc2)C1C(=O)Nc1cccc(F)c1F (racemic) [Compound 119]
5: Wheat plant response rating (wheat (winter wheat); [7]) | Plant response rating, Wheat (wheat (winter wheat); [8]) | Plant response rating, Ryegrass, Italian (ryegrass, Italian; [6]) | Plant response rating, Lambsquarters (lambsquarters; [3]) | Plant response rating, Soybean (soybean; [3]) | Plant response rating, Soybean (soybean; [4]) | Plant response rating, Soybean (soybean; [6]) | Plant response rating, Corn (corn; [6]) | Plant response rating, Morningglory (morningglory; [5]) | Plant response rating, Morningglory (morningglory; [6])
25: Plant response rating, Barnyardgrass (barnyardgrass [1]; [3]) | Lambsquarters plant response rating (lambsquarters; [7]) | Plant response rating, Pigweed (pigweed; [6]) | Plant response rating, Ragweed (ragweed; [6])
100: Plant response rating, Ducksalad (ducksalad)
98: Plant response rating (scale of 0 to 100; 0 is no effect, 100 is complete control), Barnyardgrass (barnyardgrass [1]; Preemergence, 250 g ai/ha)
80: Plant response rating, Barnyardgrass (barnyardgrass [1]; [6]) | Barnyardgrass plant response rating (barnyardgrass [1]; [7]) | Plant response rating (scale of 0 to 100), Waterhemp (waterhemp; Preemergence, 250 g ai/ha) | Plant response rating, Barnyardgrass (barnyardgrass [2]) | Galium plant response rating (galium; 31 g ai/ha, scale 0 to 100, 0 is no effect and 100 is complete control) | Plant response rating, Galium (galium; 62 g ai/ha, scale 0 to 100) | Plant response rating (scale of 0 to 100), Ragweed (ragweed; Preemergence, 250 g ai/ha)
10: Plant response rating, Pigweed (pigweed; [3]) | Plant response rating, Pigweed (pigweed; [4])
65: Plant response rating, Barnyardgrass (barnyardgrass [1]; [5]) | Plant response rating, Waterhemp (waterhemp; [8])
40: Plant response rating, Barnyardgrass (barnyardgrass [1]; [4]) | Plant response rating, Waterhemp (waterhemp; [6]) | Plant response rating (scale of 0 to 100), Ryegrass, Italian (ryegrass, Italian; Preemergence, 250 g ai/ha)
75: Plant response rating, Lambsquarters (lambsquarters; [5]) | Plant response rating, Pigweed (pigweed; [9]) | Plant response rating, Ragweed (ragweed; [9])
50: Plant response rating, Lambsquarters (lambsquarters; [4])
35: Plant response rating, Ragweed (ragweed; [8]) | Plant response rating, Morningglory (morningglory; [9]) | Plant response rating (scale of 0 to 100), Morningglory (morningglory; Preemergence, 250 g ai/ha)
15: Plant response rating, Ryegrass, Italian (ryegrass, Italian; [8]) | Plant response rating, Pigweed (pigweed; [5]) | Plant response rating, Corn (corn; [9])
90: Plant response rating, Barnyardgrass (barnyardgrass [1]; [8]) | Plant response rating (scale of 0 to 100), Wheat (wheat (winter wheat); Preemergence, 250 g ai/ha) | Plant response rating (scale of 0 to 100), Galium (galium; 250 g ai/ha)
70: Plant response rating, Waterhemp (waterhemp; [9]) | Plant response rating, Lambsquarters (lambsquarters; [6])
85: Plant response rating, Lambsquarters (lambsquarters; [9]) | Plant response rating (scale of 0 to 100), Lambsquarters (lambsquarters; Preemergence, 250 g ai/ha) | Plant response rating (scale of 0 to 100), Pigweed (pigweed; Preemergence, 250 g ai/ha) | Plant response rating, Galium (galium; [10])
0: Plant response rating, Waterhemp (waterhemp; [3]) | Plant response rating, Waterhemp (waterhemp; [4]) | Plant response rating, Waterhemp (waterhemp; [5]) | Plant response rating, Wheat (wheat (winter wheat); [3]) | Plant response rating, Wheat (wheat (winter wheat); [4]) | Plant response rating, Wheat (wheat (winter wheat); [5]) | Plant response rating, Wheat (wheat (winter wheat); [6]) | Plant response rating, Ryegrass, Italian (ryegrass, Italian; [3]) | Plant response rating, Ryegrass, Italian (ryegrass, Italian; [4]) | Plant response rating, Ryegrass, Italian (ryegrass, Italian; [5]) | Ryegrass, Italian plant response rating (ryegrass, Italian; [7]) | Plant response rating, Soybean (soybean; [5]) | Soybean plant response rating (soybean; [7]) | Plant response rating, Soybean (soybean; [9]) | Plant response rating (scale of 0 to 100), Soybean (soybean; Preemergence, 250 g ai/ha) | Plant response rating, Sedge, Umbrella (sedge, umbrella) | Plant response rating, Oat, Wild (oat, wild; 31 g ai/ha, scale 0 to 100 (0 no effect, 100 complete control)) | Plant response rating, Oat, Wild (oat, wild; 62 g ai/ha, scale 0 (no effect) to 100 (complete control)) | Plant response rating, Oat, Wild (oat, wild; [10]) | Plant response rating, Oat, Wild (oat, wild; 250 g ai/ha, scale 0 to 100 (0 no effect, 100 complete control)) | Plant response rating, Corn (corn; [3]) | Plant response rating, Corn (corn; [4]) | Plant response rating, Corn (corn; [5]) | Corn plant response rating (corn; [7]) | Plant response rating, Corn (corn; [8]) | Plant response rating, Ragweed (ragweed; [4]) | Plant response rating, Morningglory (morningglory; [3]) | Plant response rating, Morningglory (morningglory; [4]) | Morningglory plant response rating (morningglory; [7]) | Plant response rating, Morningglory (morningglory; [8])
30: Plant response rating, Ryegrass, Italian (ryegrass, Italian; [9]) | Pigweed plant response rating (pigweed; [7])
95: Plant response rating, Barnyardgrass (barnyardgrass [1]; [9])
20: Waterhemp plant response rating (waterhemp; [7]) | Plant response rating, Soybean (soybean; [8]) | Plant response rating, Ragweed (ragweed; [3])
45: Plant response rating (scale of 0 to 100), Corn (corn; Preemergence, 250 g ai/ha) | Plant response rating, Ragweed (ragweed; [5])
60: Plant response rating, Wheat (wheat (winter wheat); [9]) | Plant response rating, Lambsquarters (lambsquarters; [8]) | Plant response rating, Pigweed (pigweed; [8]) | Ragweed plant response rating (ragweed; [7])
